Assays:
THP-1 = experiment: Antiinflammatory activity against human THP-1 cells assessed as inhibition of LPS induced IL-23 production; type: functional, cell-based
[1] = Antiinflammatory activity against human dendritic cells assessed as inhibition of LPS induced IL-23 production; type: functional, cell-based; conditions: Dendritic cell
PAD = experiment: Induction of PAD activity against human A549 cells; type: toxicity, cell-based
[2] = Clearance in rat at 1 mg/kg, iv; type: ADME, organism-based; conditions: in vivo
[3] = Drug metabolism in rat liver microsomes assessed as oxidative metabolite formation; type: ADME, Microsome
[4] = biological target: T1, Interleukin-1 receptor-associated kinase 4 (Homo sapiens, UniProt Q9NWZ3); experiment: Inhibition of IRAK4 (unknown origin)
T1 sequence (Q9NWZ3 whole entry): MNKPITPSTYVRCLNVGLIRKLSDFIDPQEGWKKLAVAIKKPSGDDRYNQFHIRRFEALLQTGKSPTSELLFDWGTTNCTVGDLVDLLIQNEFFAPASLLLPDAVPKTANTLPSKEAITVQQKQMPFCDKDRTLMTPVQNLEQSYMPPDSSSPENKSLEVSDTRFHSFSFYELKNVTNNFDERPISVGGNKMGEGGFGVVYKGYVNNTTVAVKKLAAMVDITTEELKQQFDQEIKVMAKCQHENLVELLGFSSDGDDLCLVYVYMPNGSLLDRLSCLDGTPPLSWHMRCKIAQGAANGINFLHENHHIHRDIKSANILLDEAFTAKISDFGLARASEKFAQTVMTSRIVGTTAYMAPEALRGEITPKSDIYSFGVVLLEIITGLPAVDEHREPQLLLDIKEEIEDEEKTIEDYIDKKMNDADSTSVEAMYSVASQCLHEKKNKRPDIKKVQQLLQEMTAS

[5] = Oral bioavailability in rat at 5 mg/kg; type: ADME, organism-based; conditions: in vivo
Mus musculus [6] = experiment: Antiinflammatory activity against mouse assessed as inhibition of IL-1 beta-stimulated IL-6 expression at 75 mg/kg; type: functional
Mus musculus [7] = experiment: Antiinflammatory activity against mouse assessed as inhibition of IL-1 beta-stimulated IL-6 expression at 45 mg/kg; type: functional
Mus musculus [8] = experiment: Antiinflammatory activity against mouse assessed as inhibition of IL-1 beta-stimulated IL-6 expression at 15 mg/kg; type: functional
Mus musculus [9] = experiment: Antiinflammatory activity against mouse assessed as inhibition of IL-1 beta-stimulated IL-6 expression at 5 mg/kg; type: functional
Rattus norvegicus [10] = experiment: Antiinflammatory activity against collagen-induced arthritis rat model assessed as inhibition of disease progression at 30 mg/kg, bid; type: functional
Rattus norvegicus [11] = experiment: Antiinflammatory activity against collagen-induced arthritis rat model assessed as inhibition of disease progression at 5 mg/kg, bid; type: functional
Rattus norvegicus [12] = experiment: Antiinflammatory activity against collagen-induced arthritis rat model assessed as inhibition of disease progression at 10 mg/kg, bid; type: functional
Rattus norvegicus [13] = experiment: Antiinflammatory activity against collagen-induced arthritis rat model assessed as inhibition of disease progression at 20 mg/kg, bid; type: functional

SMILES | IC50 (THP-1) | IC50 [1] | IC50 (PAD) | clearance [2] | Drug metabolism [3] | IC50 [4] | bioavailability [5] | inhibition in vivo at 75 mg/kg (Mus musculus [6]) | inhibition in vivo at 45 mg/kg (Mus musculus [7]) | inhibition in vivo at 15 mg/kg (Mus musculus [8]) | inhibition in vivo at 5 mg/kg (Mus musculus [9]) | inhibition in vivo at 30 mg/kg (Rattus norvegicus [10]) | inhibition in vivo at 5 mg/kg (Rattus norvegicus [11]) | inhibition in vivo at 10 mg/kg (Rattus norvegicus [12]) | inhibition in vivo at 20 mg/kg (Rattus norvegicus [13])
NC(=O)[C@@H]1[C@H](Nc2nc(Nc3cccc(C(=O)N4CCCC4)c3)nc3ccsc23)[C@H]2C=C[C@@H]1C2 | 90 nM | 40 nM | 3.8 µM | 113 mL/min/kg | Metabolite_Detected |  |  |  |  |  |  |  |  |  | 
CC(C)n1ncc2ccc(Nc3nc(N[C@H]4[C@@H](C(N)=O)[C@@H]5C=C[C@H]4C5)c4c(ccn4C(F)F)n3)cc21 | 230 nM | 220 nM | 0.82 µM | 6 mL/min/kg |  | 4.3 nM | 43% | 64% | 37% | 16% | 9% | 100% |  |  | 
NC(=O)[C@@H]1[C@H](Nc2nc(Nc3cc(F)cc(N4CCOCC4)c3)nc3ccoc23)[C@H]2C=C[C@@H]1C2 | 250 nM | 140 nM | 3.2 µM | 53 mL/min/kg |  | 15 nM | 38% | 65% |  |  |  | 100% | 30% | 56% | 97%
